# Source: US4616023A, “Pharmaceutical compositions of 4-(dibenzo-[a,d]cycloalkenyl)piperazine compounds and methods” (Merck & Co., Inc., priority 1985, dated 1986)
# Tested on: Rat Aorta
# Assay: inhibition of calcium induced contraction of vascular smooth muscle (rat aorta segments)
# Type: cell-based, male Sprague-Dawley rats
# Conditions: 1.0 mM calcium chloride induced contraction, read-out: Percent Inhibition of Rat Aorta; for inhibition at 0.1 µM: at 10^-7 M; for inhibition at 0.01 µM: at 10^-8 M
# Protocol: The property may be observed in a test in which segments of vascular smooth muscle obtained from male Sprague-Dawleyrats are suspended in physiological salt solution in a tissue bath instrumented for recording contractions. After the tissue has been equilibrated, washed in calcium-free physiological salt solution and then depolarized, 1.0 mM calcium chloride is re-added to induce contraction. After the contraction has reached a plateau, tissues are washed and a test compound or vehicle is added to determine the effect achieved by the above cyclic protocol on a second contraction. From measuring the initial contraction as well as the second contraction in the presence of the test compound, the extent of inhibition may be calculated. The results of these tests for representative compounds in the compositions of the present invention are seen in the following table.
compound,measurement,value
"COc1ccc2c(c1)C(N1CCN(C)CC1)c1ccccc1C=C2 (centres unmarked) [1-(3-Methoxy-5H-dibenzo[a,d]cyclohepten-5-yl)-4-methylpiperazine]",inhibition at 0.1 µM,65%
"CN1CCN(C2c3ccccc3C=Cc3ccc(Cl)cc32)CC1 (centres unmarked) [1-(3-Chloro-5H-dibenzo[a,d]cyclohepten-5-yl)-4-methylpiperazine]",inhibition at 0.1 µM,90%
"C1=Cc2ccccc2C(N2CCNCC2)c2ccccc21 [1-(5H-Dibenzo[a,d]cyclohepten-5-yl)piperazine]",inhibition at 0.1 µM,34%
"CN1CCN(C2c3ccccc3C=Cc3ccc(Br)cc32)CC1 (centres unmarked) [1-(3-Bromo-5H-dibenzo[a,d]cyclohepten-5-yl)-4-methylpiperazine]",inhibition at 0.01 µM,48%
"C(=Cc1ccccc1)CN1CCN(C2c3ccccc3C=Cc3ccccc32)CC1 [1-cinnamyl-4-(5H-dibenzo[a,d]cyclohepten-5-yl)piperazine]",inhibition at 0.01 µM,89%
"Brc1ccc2c(c1)C(N1CCN(CC=Cc3ccccc3)CC1)c1ccccc1C=C2 (centres unmarked) [1-(3-bromo-5H-dibenzo[a,d]cyclohepten-5-yl)-4-cinnamylpiperazine]",inhibition at 0.1 µM,41%
"CN1CCN(C2c3ccccc3C=Cc3ccccc32)CC1 [1-(5H-dibenzo[a,d]cyclohepten-5-yl)-4-methylpiperazine]",inhibition at 0.1 µM,59%
"CSc1ccc2c(c1)C(N1CCN(C)CC1)c1ccccc1C=C2 (centres unmarked) [1-Methyl-4-(3-methylthio-5H-dibenzo[a,d]cyclohepten-5-yl)piperazine]",inhibition at 0.1 µM,76%
"CCOC(=O)N1CCN(C2c3ccccc3C=Cc3ccccc32)CC1 [Ethyl 4-(5H-Dibenzo[a,d]cyclohepten-5-yl)-1-piperazinecarboxylate]",inhibition at 0.1 µM,37%
"COc1ccc2c(c1)C(N1CCN(C)CC1)c1ccccc1CC2 (centres unmarked) [1-(10,11-Dihydro-3-methoxy-5H-dibenzo[a,d]cyclohepten-5-yl)-4-methylpiperazine]",inhibition at 0.1 µM,36%
"CN1CCN(C2c3ccccc3CSc3ccccc32)CC1 (centres unmarked) [1-(6,11-Dihydrodibenzo[b,e]thiepin-11-yl)-4-methylpiperazine]",inhibition at 0.1 µM,30%
